According to ChEMBL document CHEMBL1127138, “2-substituted penems, new candidates for cephalosporinase inhibitors” (Bioorg Med Chem Lett, 1993):

Experiments:
[1] = molecular target: Beta-lactamase (Enterobacter cloacae) (UniProt P05364); experiment: Tested for the inhibitory activity against beta-lactamase, Enterobacter cloacae at dose of 0.1 ug/mL using substrate cephaloridine (CER)
[2] = molecular target: Beta-lactamase (Enterobacter cloacae) (UniProt P05364); experiment: Tested for the inhibitory activity against beta-lactamase, Enterobacter cloacae at dose of 10 ug/mL using substrate cephaloridine (CER); (E. Cloacae enzyme activity is 1.1517 U/ml)
[3] = molecular target: Beta-lactamase (Pseudomonas aeruginosa (strain ATCC 15692 / PAO1 / 1C / PRS 101 / LMG12228)) (UniProt P24735); experiment: Tested for the inhibitory activity against beta-lactamase, Pseudomonas aeruginosa at dose of 10 ug/mL using substrate cephaloridine (CER); (P. Aeruginosa enzyme activity is 1.0352 U/ml)
[4] = molecular target: TEM-1 beta-lactamase (Escherichia coli) (UniProt P62593); experiment: Tested for the inhibitory activity against beta-lactamase type TEM-1 at dose of 10 ug/mL using substrate ampicillin (ABPC)
[5] = molecular target: TEM-1 beta-lactamase (Escherichia coli) (UniProt P62593); experiment: Tested for the inhibitory activity against beta-lactamase type TEM-1 at dose of 0.1 ug/mL using substrate ampicillin (ABPC); (TEM-1 enzyme activity is 1.6328 U/mL)
[6] = Tested for the inhibitory activity against beta-lactamase type CTX-1 at dose of 10 ug/mL using substrate cephaloridine (CER); (CTX-1 enzyme activity is 0.7363 U/ml)
[7] = molecular target: Beta-lactamase (Enterobacter cloacae) (UniProt P05364); experiment: Tested for the inhibitory activity against beta-lactamase, Enterobacter cloacae at dose of 0.66 ug/mL using substrate cephaloridine (CER)
[8] = molecular target: Beta-lactamase (Enterobacter cloacae) (UniProt P05364); experiment: Tested for the inhibitory activity against beta-lactamase, Enterobacter cloacae at dose of 0.66 ug/mL using substrate cephaloridine (CER); (E. Cloacae enzyme activity is 1.1517 U/ml)
[9] = molecular target: Beta-lactamase (Pseudomonas aeruginosa (strain ATCC 15692 / PAO1 / 1C / PRS 101 / LMG12228)) (UniProt P24735); experiment: Tested for the inhibitory activity against beta-lactamase, Pseudomonas aeruginosa at dose of 0.66 ug/mL using substrate cephaloridine (CER); (P. Aeruginosa enzyme activity is 1.0352 U/ml)
[10] = molecular target: TEM-1 beta-lactamase (Escherichia coli) (UniProt P62593); experiment: Tested for the inhibitory activity against beta-lactamase type TEM-1 at dose of 0.66 ug/mL using substrate ampicillin (ABPC); (TEM-1 enzyme activity is 1.6328 U/mL)
[11] = Tested for the inhibitory activity against beta-lactamase type CTX-1 at dose of 0.66 ug/mL using substrate cephaloridine (CER); (CTX-1 enzyme activity is 0.7363 U/ml)

Chain of TEM-1 beta-lactamase (Escherichia coli) (P62593 whole entry, looked up): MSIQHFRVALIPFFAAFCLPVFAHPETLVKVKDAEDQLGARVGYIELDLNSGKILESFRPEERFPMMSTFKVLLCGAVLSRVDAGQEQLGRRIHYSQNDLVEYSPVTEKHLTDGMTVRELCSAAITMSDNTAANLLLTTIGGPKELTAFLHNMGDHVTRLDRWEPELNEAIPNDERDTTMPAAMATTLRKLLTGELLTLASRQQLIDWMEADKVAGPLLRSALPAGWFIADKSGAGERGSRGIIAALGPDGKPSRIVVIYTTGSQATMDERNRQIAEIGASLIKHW
Chain of Beta-lactamase (Enterobacter cloacae) (P05364 21-381 limits assumed): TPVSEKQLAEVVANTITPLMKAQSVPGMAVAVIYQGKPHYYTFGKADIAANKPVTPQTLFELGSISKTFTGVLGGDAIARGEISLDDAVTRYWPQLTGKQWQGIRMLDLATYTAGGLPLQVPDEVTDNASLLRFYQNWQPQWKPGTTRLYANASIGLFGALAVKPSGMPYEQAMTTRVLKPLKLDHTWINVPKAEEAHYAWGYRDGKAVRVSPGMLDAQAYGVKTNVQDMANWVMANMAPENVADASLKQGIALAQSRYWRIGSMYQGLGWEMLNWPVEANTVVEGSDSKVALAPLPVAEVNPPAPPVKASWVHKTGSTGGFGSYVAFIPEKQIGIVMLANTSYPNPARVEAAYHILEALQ
Chain of Beta-lactamase (Pseudomonas aeruginosa (strain ATCC 15692 / PAO1 / 1C / PRS 101 / LMG12228)) (P24735 27-397 limits assumed): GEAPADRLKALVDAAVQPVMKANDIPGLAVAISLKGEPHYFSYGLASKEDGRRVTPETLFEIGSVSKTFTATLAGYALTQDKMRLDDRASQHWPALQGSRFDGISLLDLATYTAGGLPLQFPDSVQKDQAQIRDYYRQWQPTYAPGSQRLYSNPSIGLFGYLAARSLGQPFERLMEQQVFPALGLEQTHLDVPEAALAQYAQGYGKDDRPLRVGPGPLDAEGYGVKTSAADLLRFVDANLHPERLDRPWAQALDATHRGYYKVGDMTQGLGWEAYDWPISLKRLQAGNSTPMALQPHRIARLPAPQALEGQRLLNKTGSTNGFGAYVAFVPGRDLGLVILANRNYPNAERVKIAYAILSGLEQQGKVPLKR

inhibition [1] [%]	inhibition [2] [%]	inhibition [3] [%]	inhibition [4] [%]	inhibition [5] [%]	inhibition [6] [%]	inhibition [7] [%]	inhibition [8] [%]	inhibition [9] [%]	inhibition [10] [%]	inhibition [11] [%]	Compound
10	45	16	28	2	19						Cn1nnnc1SC1=C(C(=O)OC(c2ccccc2)c2ccccc2)N2C(=O)C[C@H]2S1
						8	14	0	6	12	Cc1nnc(SC2=C(C(=O)OC(c3ccccc3)c3ccccc3)N3C(=O)C[C@H]3S2)s1
